Values after ≈ are worked out from the molar mass of the structure shown.

Data set [1] deals with Human immunodeficiency virus 1. In words: Antiviral activity against HIV-1 IIIB infected in human MT2 cells assessed as inhibition of viral growth. The following applies: Human immunodeficiency virus 1, IIIB. In kind it is functional, organism-based.
Data set [2] deals with MT2. In words: Cytotoxicity against human MT2 cells assessed as reduction in cell growth. In kind it is functional, cell-based.
Data set [3] is described as follows: Cytotoxicity against human PBMC cells. It is filed as toxicity, cell-based.
The subject of data set [4] is Human immunodeficiency virus 1. In words: Antiviral activity against HIV-1 harboring L100I mutant infected in human MT4 cells assessed as virus-induced cytopathicity treated for 5 days by MTT assay. In kind it is functional, organism-based. The following applies: Human immunodeficiency virus 1, MT4, 120 h. (Damage to the host cells serves as the signal in cytopathic effect assays.)

For data set [5], the system named is Human immunodeficiency virus 1. In words: Antiviral activity against HIV1 harboring Y181C mutant infected in human MT4 cells. In kind it is functional, organism-based. The following applies: Human immunodeficiency virus 1, MT4.
Data set [6] concerns Human immunodeficiency virus 1. In words: Antiviral activity against HIV1 harboring Y188H mutant infected in MT4 cells assessed as virus-induced cytopathicity treated for 5 days by MTT assay. It is filed as functional, organism-based. The note with it: Human immunodeficiency virus 1, MT4, 120 h.
The subject of data set [7] is Human immunodeficiency virus 1. In words: Antiviral activity against NNRTI-resistant HIV-1 harboring E138K mutant infected in human MT4 cells assessed as protection against virus-induced cytopathic effect by MTT assay. It is filed as functional, organism-based. The note with it: Human immunodeficiency virus 1, MT4.
For data set [8], the system named is Human immunodeficiency virus 1. In words: Antiviral activity against HIV-1 NL4-3 harboring infected K103N mutant infected in human MT4 cells assessed as reduction in viral replication. It is filed as functional, organism-based. The note with it: Human immunodeficiency virus 1, NL4-3, MT4.
Data set [9] has as its system Human immunodeficiency virus 1. In words: Antiviral activity against HIV-1 NL4-3 harboring infected Y181C mutant infected in human MT4 cells assessed as reduction in viral replication. It is filed as functional, organism-based. The following applies: Human immunodeficiency virus 1, NL4-3, MT4.
For data set [10], the system named is Human immunodeficiency virus 1. In words: Antiviral activity against wild type HIV-1 NL4-3 infected in human MT4 cells assessed as reduction in viral replication. It is filed as functional, organism-based. The following applies: Human immunodeficiency virus 1, NL4-3, MT4; read-out: EC50.
Data set [11] has as its system Human immunodeficiency virus 1. In words: Antiviral activity against HIV1 IIIB infected in human MT4 cells assessed as reduction in virus-induced cytopathic effect incubated for 4 days by MTT assay. The note with it: Human immunodeficiency virus 1, IIIB, MT4, 96 h. It is filed as functional, organism-based.
In data set [12] the test system is MT4. In words: Cytotoxicity against human MT4 cells assessed as reduction in […] incubated for 4 days by MTT assay. It is filed as functional. The note with it: MT4, 96 h, time 4 day.
The nature of data set [13]: Selectivity index, ratio of CC50 for human MT4 cells to EC50 for antiviral activity against HIV1 infected in human MT4 cells. It is filed as toxicity, cell-based. The note with it: read-out: Ratio CC50/EC50.
Data set [14] deals with Human immunodeficiency virus 1. In words: Antiviral wild type activity against HIV-1 WAN infected in human PBMC cells assessed as reduction in virus-induced cytopathic effect incubated for 3 days by MTT assay. In kind it is functional, organism-based. The following applies: Human immunodeficiency virus 1, WAN, 72 h.
Data set [15] deals with Human immunodeficiency virus 1. In words: Antiviral wild type activity against HIV-1 IIIB infected in human C8166 cells assessed as reduction in virus-induced cytopathic effect incubated for 3 days by MTT assay. The following applies: Human immunodeficiency virus 1, IIIB, C8166, 72 h. It is filed as functional, organism-based.
Data set [16] concerns Human immunodeficiency virus 1. In words: Antiviral wild type activity against HIV-1 TC-1 infected in human PBMC cells assessed as reduction in virus-induced cytopathic effect incubated for 3 days by MTT assay. In kind it is functional, organism-based. The note with it: Human immunodeficiency virus 1, TC-1, PBMC, 72 h.
The test system of data set [17] is Human immunodeficiency virus 1. In words: Antiviral wild type activity against HIV-1 Ba-L infected in human TZM-bl cells assessed as reduction in virus-induced cytopathic effect incubated for 3 days by MTT assay. It is filed as functional, organism-based. The following applies: Human immunodeficiency virus 1, Ba-L, 72 h.
The subject of data set [18] is Human immunodeficiency virus 1. In words: Antiviral […] activity against HIV-1 A17 harboring reverse transcriptase K103N/Y181C double mutant infected in human C8166 cells assessed as reduction in virus-induced cytopathic effect incubated for 3 days by MTT assay. It is filed as functional, organism-based. The following applies: Human immunodeficiency virus 1, A17, C8166, 72 h.

Data set [19] relates to Human immunodeficiency virus 1. In words: Antiviral activity against HIV-1 IIIB infected in human C8166 cells assessed as reduction in virus-induced cytopathic effect incubated for 3 days by MTT assay. It is filed as functional, organism-based. The following applies: Human immunodeficiency virus 1, IIIB, C8166, 72 h.
The subject of data set [20] is Hepatitis B virus. In words: Antiviral activity against Hepatitis B virus infected in human HepG2.2.15 cells assessed as inhibition of HBV DNA production by qRT-PCR analysis. It is filed as functional, organism-based. (Real-time PCR tracks product formation cycle by cycle.)
Data set [21] concerns Bacillus subtilis. In words: Antibacterial activity against Bacillus subtilis. In kind it is functional.
Data set [22] relates to Staphylococcus aureus. In words: Antibacterial activity against Staphylococcus aureus. In kind it is functional.
The subject of data set [23] is Human alphaherpesvirus 1. In words: Antiviral activity against HSV-1 infected in Vero cells by plaque reduction assay. It is filed as functional. The following applies: Human alphaherpesvirus 1, Vero; read-out: ED50 (the source's name). On the technique in general: In a plaque reduction assay, fewer plaques than in the control indicate reduced infectivity or spread.

The nature of data set [24]: Toxicity in African green monkey Vero cells assessed as reduction in cell viability incubated for 72 hrs by MTT assay. In kind it is cell-based. The following applies: chlorocebus sabaeus, read-out: TD50.
Data set [25] has as its system Human immunodeficiency virus 1. In words: Antiviral activity against HIV-1 IIIB infected in human C8166 cells assessed as reduction in viral replication measured for 3 days. It is filed as functional. The note with it: Human immunodeficiency virus 1, IIIB, C8166, 72 h; time 3 day; read-out: ED50 (the source's name).
Data set [26] can be described thus: Toxicity in human C8166 cells assessed as reduction in cell viability incubated for 72 hrs by MTT assay. It is filed as cell-based. The note with it: read-out: TD50.
Data set [27] concerns dengue virus type 1. In words: Antiviral activity Dengue virus 1. It is filed as functional, organism-based.
Data set [28] is described as follows: Cytotoxicity against African green monkey Vero cells. In kind it is toxicity, cell-based. The following applies: chlorocebus sabaeus.
The test system of data set [29] is dengue virus type 2. In words: Antiviral activity Dengue virus 2. In kind it is functional, organism-based.
Data set [30] concerns dengue virus type 3. In words: Antiviral activity Dengue virus 3. It is filed as functional, organism-based.
The test system of data set [31] is dengue virus type 4. In words: Antiviral activity Dengue virus 4. It is filed as functional, organism-based.
A short description of data set [32]: Inhibition of HIV-1 Reverse transcriptase G190S mutant. On the set-up: species or system Human immunodeficiency virus 1.

What is called IC50 is the concentration that inhibits the measured activity by half. Turning to `Nc1cc(Cl)nc(SCc2ccccc2)n1`, the EC50 in [1] turned out to be 400 nM. For the same molecule, the IC50 in data set [2] and in data set [3] was more than 16000 nM in each case.
Turning to `C[C@H](Sc1nc(N)cc(Cl)n1)c1cc2ccoc2cn1`, the values for the EC50 in [4], in [5] and in [6] were 39 nM, 179 nM and 77 nM, respectively.
As to `Cc1c(C(C)c2c(F)cccc2F)nc(N(C)Cc2ccc([N+](=O)[O-])cc2)[nH]c1=O` (stereo not drawn), the EC50 amounted to 518 nM in data set [7], 518 nM in data set [8], 814 nM in data set [9] and 10 nM in data set [10].
Turning to `COc1ccc(CN(C)c2nc(C(C)c3c(F)cccc3F)c(C)c(=O)[nH]2)cc1` (stereo not drawn), the EC50 was determined as 102 nM in [7], 102 nM in [8], 80 nM in [9] and 3 nM in data set [10].
Regarding `CCC(C)Sc1nc(O)cc(Cc2cccc3ccccc23)n1` (stereo not drawn), in data set [11], the EC50 was found to be 330 nM. The CC50 in data set [12] was more than 300000 nM. Moreover, the selectivity ratio in data set [13] is more than 909.
Turning to `CCc1c(CC2CCCCC2)nc(SCc2cc(-c3ccc(O)cc3)[nH]n2)[nH]c1=O`, the EC50 was found to be 56 nM in data set [14]; 4 nM in data set [15]; 14 nM in data set [16]; 48 nM in data set [17]; 2770 nM in data set [18]; 3 nM in data set [19].
The molecule `Nc1cc(Cl)nc(Sc2ccccc2)n1` came in with a CC50 in data set [3] of 207000 nM.
As to `O=c1[nH]c(SC2O[C@H](CO)[C@H](O)[C@@H](O)[C@@H]2O)nc(Cc2ccccc2)c1Cc1ccccc1` (stereo partly drawn), the EC50 in data set [20] turned out to be 200 nM.
What is called MIC is the least concentration at which growth counts as inhibited. In the case of `Cc1ccc(-c2nc(S/C(=N/Nc3ccc(O)cc3)C(=O)c3ccc(Br)cc3)[nH]c(=O)c2C#N)cc1`, the MIC in [21] came out at 1.17 µg/mL (≈ 2.09 µM); in data set [22], 0.19 µg/mL (≈ 0.339 µM).
Consider `CCCCOc1nc(Cc2ccc(OC)cc2)cc(=O)[nH]1`, for which the EC50 was determined as 50 µg/mL (≈ 173 µM) in data set [23] and 25 µg/mL (≈ 86.7 µM) in [25]. Besides, the CC50 at 72 h in data set [24] and in [26] was 100 µg/mL (≈ 347 µM) in each case.
For the molecule `CCc1c(CC2CCCCC2)nc(SCc2n[nH]c(-c3ccc(F)c(F)c3)c2Cl)[nH]c1=O`, the EC50 amounted to 1470 nM in data set [27], 9230 nM in [29], 7080 nM in data set [30] and 8910 nM in data set [31]. The CC50 in [28] was more than 200000 nM.
With `N#Cc1c(-c2ccc(Br)cc2)nc(S/C(=N/Nc2ccc(O)cc2)C(=O)c2ccc(Br)cc2)[nH]c1=O`, the values for the MIC in [21] and in [22] were 2.34 µg/mL (≈ 3.74 µM) and 1.17 µg/mL (≈ 1.87 µM), respectively.
For the molecule `COc1ccc(Cc2cc(N)nc(OC)n2)cc1`, the values for the EC50 in data set [23] and in [25] were 25 µg/mL (≈ 102 µM) and 12.5 µg/mL (≈ 51 µM), respectively. Also, the CC50 at 72 h in data set [24] and in data set [26] was 50 µg/mL (≈ 204 µM) in each case.
With `Cc1cc(/C=C/C#N)cc(C)c1Nc1ncnc(Nc2ccc(C#N)cc2)n1`, the concentration for half-maximal inhibition (IC50) in [32] came to 0.1 nM.

The values are drawn from ChEMBL document CHEMBL6115028, “An Amazing 30-Year Journey around the DABO Family: A Medicinal Chemistry Lesson on a Versatile Class of Non-nucleoside HIV-1 Reverse Transcriptase Inhibitors” (J Med Chem, 2025).
